{
  "source": "paper PMC11249646",
  "about": "“Small-Molecule Disruptors of the Interaction between Calcium- and Integrin-Binding Protein 1 and Integrin αIIbβ3 as Novel Antiplatelet Agents” (ACS Pharmacology & Translational Science, 2024)",
  "key": {"[1]": {"molecular_target": "T1, GST-CIB1 : F-scrambled peptide (Homo sapiens, UniProt Q99828)", "T1 construct": "made in house; host or cells: BL-21 plus RIL cells (E. coli)", "T1 sequence (Q99828 1-191)": "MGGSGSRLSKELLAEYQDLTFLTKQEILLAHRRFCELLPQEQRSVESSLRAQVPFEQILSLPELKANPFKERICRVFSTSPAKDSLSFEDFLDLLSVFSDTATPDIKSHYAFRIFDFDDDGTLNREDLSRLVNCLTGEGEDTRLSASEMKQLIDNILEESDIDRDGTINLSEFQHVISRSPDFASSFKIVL", "experiment": "FP scrambled-peptide counter screen, 1536-well format", "type": "binding", "details": "for IC50: read-out: IC50 [μM] (counterscreen)"}, "[2]": {"molecular_target": "T2, CIB1 and αIIb interaction (CIB1-GST : F-αIIb peptide) (Homo sapiens, UniProt Q99828)", "T2 construct": "made in house; host or cells: BL-21 plus RIL cells (E. coli)", "T2 sequence (Q99828 1-191)": "T1 sequence (Q99828 1-191)", "experiment": "FP assay, 1536-well qHTS format (primary and confirmatory screen)", "type": "binding", "details": "for IC50: read-out: IC50 [μM] (confirmatory screen); for Efficacy (%) / Curve Class / pIC50: Table S2; for pIC50: read-out: IC50"}, "[3]": {"details": "counterscreen, qHTS curve class, negative sign = inhibitory curve"}, "[4]": {"details": "confirmatory screen, qHTS curve class, negative sign = inhibitory curve"}, "[5]": {"details": "Table S3, counterscreen, qHTS curve class, a negative sign marks inhibitory curves"}, "[6]": {"details": "Table S3, counterscreen, negative = inhibition"}, "[7]": {"details": "Table S3, confirmatory screen, YES/NO call"}, "[8]": {"details": "Table S3, confirmatory screen, qHTS curve class, a negative sign marks inhibitory curves"}, "[9]": {"details": "Table S3, confirmatory screen, negative = inhibition"}, "[10]": {"details": "qHTS primary screen hits, negative = inhibition"}, "[11]": {"details": "qHTS primary screen hits, negative sign = inhibitory curve, several classes where COUNT > 1"}, "[12]": {"details": "Table S3, counterscreen, YES/NO call"}, "[13]": {"details": "qHTS FP screen hits, negative = inhibition"}, "[14]": {"details": "qHTS FP screen hits, one class per curve where COUNT > 1, negative sign = inhibitory curve"}},
  "note": "pIC50: −log10 of the molar value. Read-outs that look alike come from different tables or passages of the source.",
  "data": [
    {"smiles": "O=c1c(O)c(-c2ccc(O)c(O)c2)oc2cc(O)cc(O)c12", "note": "[NCGC00015870-16]", "values": [
      {"measurement": "Efficacy (%) (counterscreen)", "setting": "[1]; counterscreen", "result": -31, "unit": "%"},
      {"measurement": "Confirm? (counterscreen)", "setting": "[1]; counterscreen, YES/NO", "result": "YES"},
      {"measurement": "Curve Class (counterscreen)", "setting": "[1]; [3]", "result": 4},
      {"measurement": "Efficacy (%) (confirmatory screen)", "setting": "[2]; confirmatory screen", "result": -32, "unit": "%"},
      {"measurement": "Confirm? (confirmatory screen)", "setting": "[2]; confirmatory screen, YES/NO", "result": "YES"},
      {"measurement": "Curve Class (confirmatory screen)", "setting": "[2]; [4]", "result": -2.4}
    ]},
    {"smiles": "O=C(O)C(F)(F)F.O=C(O)c1ccc(Cc2c(-c3cccc(-c4ccccc4)c3)nn(-c3nc(C(=O)O)cs3)c2O)cc1", "note": "[NCGC00356639-01]", "values": [
      {"measurement": "Curve Class (counterscreen)", "setting": "[1]; [5]", "result": -2.1},
      {"measurement": "Efficacy (%) (counterscreen)", "setting": "[1]; [6]", "result": -99, "unit": "%"},
      {"measurement": "IC50", "setting": "[1]; Table S3, counterscreen", "result": 39.8, "unit": "µM"},
      {"measurement": "Confirm? (confirmatory screen)", "setting": "[2]; [7]", "result": "YES"},
      {"measurement": "Curve Class (confirmatory screen)", "setting": "[2]; [8]", "result": -2.2},
      {"measurement": "Efficacy (%) (confirmatory screen)", "setting": "[2]; [9]", "result": -79, "unit": "%"},
      {"measurement": "IC50", "setting": "[2]; Table S3, confirmatory screen", "result": 50.1, "unit": "µM"},
      {"measurement": "Efficacy (%)", "setting": "[2]; [10]", "result": -39, "unit": "%"},
      {"measurement": "Curve Class", "setting": "[2]; [11]", "result": -2.2},
      {"measurement": "pIC50", "setting": "[2]; qHTS primary screen hits", "result": 4.40}
    ]},
    {"smiles": "Nc1nc2c(s1)C(c1ccccc1)CC(=O)N2", "note": "(centres unmarked) [NCGC00422009-03]", "values": [
      {"measurement": "Confirm? (counterscreen)", "setting": "[1]; [12]", "result": "YES"},
      {"measurement": "Curve Class (counterscreen)", "setting": "[1]; [5]", "result": -2.4},
      {"measurement": "Efficacy (%) (counterscreen)", "setting": "[1]; [6]", "result": -45, "unit": "%"},
      {"measurement": "IC50", "setting": "[1]; Table S3, counterscreen", "result": 39.8, "unit": "µM"},
      {"measurement": "Curve Class (confirmatory screen)", "setting": "[2]; [8]", "result": 4},
      {"measurement": "Efficacy (%) (confirmatory screen)", "setting": "[2]; [9]", "result": -35, "unit": "%"},
      {"measurement": "Efficacy (%)", "setting": "[2]; [10]", "result": -83, "unit": "%"},
      {"measurement": "Curve Class", "setting": "[2]; [11]", "result": -2.2},
      {"measurement": "pIC50", "setting": "[2]; qHTS primary screen hits", "result": 4.10}
    ]},
    {"smiles": "NS(=O)(=O)c1ccc(Cc2c(-c3ccc(F)c(-c4ccc(F)cc4)c3)nn(-c3nc(C(=O)O)cs3)c2C2CC2)cc1F.O=C(O)C(F)(F)F", "note": "[NCGC00381623-01]", "values": [
      {"measurement": "Efficacy (%) (counterscreen)", "setting": "[1]; [6]", "result": 250, "unit": "%"},
      {"measurement": "IC50", "setting": "[1]; Table S3, counterscreen", "result": 79.4, "unit": "µM"},
      {"measurement": "Curve Class (confirmatory screen)", "setting": "[2]; [8]", "result": 3},
      {"measurement": "Efficacy (%) (confirmatory screen)", "setting": "[2]; [9]", "result": 124, "unit": "%"},
      {"measurement": "Efficacy (%)", "setting": "[2]; [10]", "result": -25, "unit": "%"},
      {"measurement": "Curve Class", "setting": "[2]; [11]", "result": -2.4},
      {"measurement": "pIC50", "setting": "[2]; qHTS primary screen hits", "result": 4.40}
    ]},
    {"smiles": "CO[C@H](C(=O)[C@@H](O)[C@@H](C)O)[C@@H]1Cc2cc3cc(C[C@H]4C[C@H](O[C@H]5C[C@@H](O)[C@H](O)[C@@H](C)O5)[C@@H](O)[C@@H](C)O4)c(C)c(O)c3c(O)c2C(=O)[C@H]1O[C@@H]1C[C@H](O[C@@H]2C[C@H](O[C@@H]3C[C@](O)(CO)[C@@H](O)[C@H](C)O3)[C@@H](O)[C@H](C)O2)[C@@H](O)[C@H](C)O1", "note": "[NCGC00162423-04]", "values": [
      {"measurement": "Curve Class (counterscreen)", "setting": "[1]; [5]", "result": -1.1},
      {"measurement": "Efficacy (%) (counterscreen)", "setting": "[1]; [6]", "result": -181, "unit": "%"},
      {"measurement": "IC50", "setting": "[1]; Table S3, counterscreen", "result": 15.8, "unit": "µM"},
      {"measurement": "Confirm? (confirmatory screen)", "setting": "[2]; [7]", "result": "YES"},
      {"measurement": "Curve Class (confirmatory screen)", "setting": "[2]; [8]", "result": -2.1},
      {"measurement": "Efficacy (%) (confirmatory screen)", "setting": "[2]; [9]", "result": -183, "unit": "%"},
      {"measurement": "IC50", "setting": "[2]; Table S3, confirmatory screen", "result": 31.6, "unit": "µM"},
      {"measurement": "Efficacy (%)", "setting": "[2]; [10]", "result": -51, "unit": "%"},
      {"measurement": "Curve Class", "setting": "[2]; [11]", "result": -2.2},
      {"measurement": "pIC50", "setting": "[2]; qHTS primary screen hits", "result": 4.62}
    ]},
    {"smiles": "COc1ccc2c(=O)n3nc(Nc4cccc(N5CCN(C)CC5)c4)sc3nc2c1.Cl", "note": "[NCGC00187813-01]", "values": [
      {"measurement": "COUNTERSCREEN Efficacy (%)", "setting": "[1]; counterscreen", "result": -16, "unit": "%"},
      {"measurement": "COUNTERSCREEN Curve Class", "setting": "[1]; counterscreen, qHTS curve class", "result": 4},
      {"measurement": "CONFIRMATORY SCREEN Efficacy (%)", "setting": "[2]; confirmatory screen", "result": -43, "unit": "%"},
      {"measurement": "CONFIRMATORY SCREEN Curve Class", "setting": "[2]; confirmatory screen, qHTS curve class", "result": 4},
      {"measurement": "Efficacy (%)", "setting": "[2]; [10]", "result": -22, "unit": "%"},
      {"measurement": "Curve Class", "setting": "[2]; [11]", "result": -1.4},
      {"measurement": "pIC50", "setting": "[2]; qHTS primary screen hits", "result": 4.75}
    ]},
    {"smiles": "O=C(NCCCN1CCNCC1)c1cccc(-c2cc(O)c3ncccc3c2)c1.O=C(O)C(F)(F)F", "note": "[NCGC00244531-01]", "values": [
      {"measurement": "Confirm? (counterscreen)", "setting": "[1]; [12]", "result": "YES"},
      {"measurement": "Curve Class (counterscreen)", "setting": "[1]; [5]", "result": -1.2},
      {"measurement": "Efficacy (%) (counterscreen)", "setting": "[1]; [6]", "result": -52, "unit": "%"},
      {"measurement": "IC50", "setting": "[1]; Table S3, counterscreen", "result": 35.5, "unit": "µM"},
      {"measurement": "Curve Class (confirmatory screen)", "setting": "[2]; [8]", "result": 4},
      {"measurement": "Efficacy (%) (confirmatory screen)", "setting": "[2]; [9]", "result": -33, "unit": "%"},
      {"measurement": "Efficacy (%)", "setting": "[2]; [13]", "result": -46, "unit": "%"},
      {"measurement": "Curve Class", "setting": "[2]; [14]", "result": -2.2},
      {"measurement": "pIC50", "setting": "[2]; qHTS FP screen hits", "result": 4.40}
    ]},
    {"smiles": "CCOC(=O)c1nn(-c2ccc(OC)cc2)c(=O)c2c(N)scc12", "note": "[NCGC00053250-03]", "values": [
      {"measurement": "Efficacy (%) (counterscreen)", "setting": "[1]; counterscreen", "result": -59, "unit": "%"},
      {"measurement": "Curve Class (counterscreen)", "setting": "[1]; [3]", "result": -2.2},
      {"measurement": "IC50", "setting": "[1]; counterscreen", "result": 20, "unit": "µM"},
      {"measurement": "Efficacy (%) (confirmatory screen)", "setting": "[2]; confirmatory screen", "result": -69, "unit": "%"},
      {"measurement": "Confirm? (confirmatory screen)", "setting": "[2]; confirmatory screen, YES/NO", "result": "YES"},
      {"measurement": "Curve Class (confirmatory screen)", "setting": "[2]; [4]", "result": -2.4},
      {"measurement": "IC50", "setting": "[2]; confirmatory screen", "result": 70.8, "unit": "µM"},
      {"measurement": "Efficacy (%)", "setting": "[2]; [13]", "result": -56, "unit": "%"},
      {"measurement": "Curve Class", "setting": "[2]; [14]", "result": -1.2},
      {"measurement": "pIC50", "setting": "[2]; qHTS FP screen hits", "result": 4.40}
    ]},
    {"smiles": "CC1=NN(c2ccc(C)c(C)c2)C(=O)/C1=N/Nc1cccc(-c2cccc(C(=O)O)c2)c1O", "note": "[NCGC00274067-01]", "values": [
      {"measurement": "Efficacy (%) (counterscreen)", "setting": "[1]; counterscreen", "result": -37, "unit": "%"},
      {"measurement": "Curve Class (counterscreen)", "setting": "[1]; [3]", "result": -1.2},
      {"measurement": "IC50", "setting": "[1]; counterscreen", "result": 35.5, "unit": "µM"},
      {"measurement": "Efficacy (%) (confirmatory screen)", "setting": "[2]; confirmatory screen", "result": -83, "unit": "%"},
      {"measurement": "Confirm? (confirmatory screen)", "setting": "[2]; confirmatory screen, YES/NO", "result": "YES"},
      {"measurement": "Curve Class (confirmatory screen)", "setting": "[2]; [4]", "result": -2.2},
      {"measurement": "IC50", "setting": "[2]; confirmatory screen", "result": 22.4, "unit": "µM"},
      {"measurement": "Efficacy (%)", "setting": "[2]; [13]", "result": -69, "unit": "%"},
      {"measurement": "pIC50", "setting": "[2]; qHTS FP screen hits", "result": 4.35}
    ]}
  ]
}
